This note sets out measurements from patent US20170128412A1, “SYSTEM AND METHOD FOR IMPROVED BLOOD CIRCULATION AND MAINTAINING MITOCHONDRIAL ENERGY PRODUCTION” (priority 2015, published 2017).

For orientation: IC50 means the midpoint of a concentration-inhibition curve. Lower therefore signals greater potency.

Assay [1] is described as follows: DPPH radical removal ability. The conditions noted are these: for IC50: DPPH radical removal. The format is biochemical. The method, then:
Chart 3 indicates the diphenylpicrylhydrazl (DPPH) radical removal ability of torolox, tocotrienol, α-tocopherol, and coenzyme Q10. The reaction composition was carried out in a DPPH solution comprising 8 mg DPPH per 100 ml of 50% ethanol. The total reaction composition comprised 0.2 ml of the specimen (torolox, tocotrienol, α-tocopherol, or coenzyme Q10) and 1.8 ml of the aforementioned DPPH solution. The total reaction composition reacted at room temperature in a dark place for 30 minutes. The absorbance measurement was carried out at 517 nm.
On the technique in general: Loss of DPPH colour is used to gauge radical scavenging.

A short description of assay [2]: Linoleate peroxidative reaction inhibition (AAPH, linoleate micellar solution). The format is biochemical. The conditions noted are these: for inhibition rate for linoleate hydroperoxide generation: as stated in the description ("Studies indicate"); for Inhibition rate (%): specimen 25 μM. The method, then: Chart 4 indicates the linoleate peroxidative reaction inhibition action of tocotrienol, a-tocopherol, and Coenzyme Q10. The linoleate micellar solution comprised 300mM linoleate, 5 mM 2,2′-Azobis(2-amidinopropane) dihydrochloride (AAPH), and a specimen (tocotrienol, α-tocopherol, or Coenzyme Q10) dissolved in 0.3% Lubrol Px—20 mM sodium phosphate buffer (pH 7.4). The reaction composition reacted at room temperature for one hour, and then 0.5 ml of methanol was added to the composition, and then 2.0 ml of 70% methanol was added to the composition. The absorbance measurement was conducted at 234 nm.

Take `COC1=C(OC)C(=O)C(C/C=C(\C)CC/C=C(\C)CC/C=C(\C)CC/C=C(\C)CC/C=C(\C)CC/C=C(\C)CC/C=C(\C)CC/C=C(\C)CC/C=C(\C)CCC=C(C)C)=C(C)C1=O` [Coenzyme Q10, coenzyme Q10]: the “DPPH inhibition, result in words” value in assay [1] is reported as “did not exhibit inhibition action”. Besides, the “Inhibition rate (%)” value in assay [1] (specimen 25 μM), in assay [1] (specimen 50 μM) and in assay [1] (specimen 100 μM) was under 0% throughout. Besides, the “Linoleate peroxidation inhibition, result in words” value in assay [2] is “did not exhibit inhibition action”. For the same compound, the “inhibition rate for linoleate hydroperoxide generation” value in assay [2] was “no such inhibition”.

The compound `Cc1c(C)c2c(c(C)c1O)CCC(C)(C(=O)O)O2` (centres unmarked) [Torolox, torolox] registered an IC50 in assay [1] of 43.8 µM. Moreover, the “Inhibition rate (%)” value in assay [1] (specimen 25 μM) turned out to be 19.1%; in assay [1] (specimen 50 μM), 48.2%; in assay [1] (specimen 100 μM), 94.9%.

For the compound `Cc1c(C)c2c(c(C)c1O)CC[C@@](C)(CCC[C@H](C)CCC[C@H](C)CCCC(C)C)O2` [α-Tocopherol, α-tocopherol], inhibition in assay [1] was half-maximal at 51.1 µM (IC50). Besides, the “Inhibition rate (%)” value is 15.2% in assay [1] (specimen 25 μM), 41% in assay [1] (specimen 50 μM), 87.6% in assay [1] (specimen 100 μM) and 42.2% in assay [2].

Turning to tocotrienol, in assay [1], the “DPPH inhibition, result in words” value is recorded as “approximately the same level as a-tocopherol” and it took 55 µM to reach half-maximal inhibition (IC50). Also, the “Inhibition rate (%)” value in assay [1] (specimen 25 μM) is 16.3%. The “Inhibition rate (%)” value in assay [1] (specimen 50 μM) was found to be 41%. Also, the “Inhibition rate (%)” value in assay [1] (specimen 100 μM) came out at 79.8%. Besides, in assay [2], the “Linoleate peroxidation inhibition, result in words” value is on record as “inhibition at the same level as a-tocopherol”; the “inhibition rate for linoleate hydroperoxide generation” value is given as “about 40%”; the “Inhibition rate (%)” value stood at 42.2%.
